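Where inhibition never reached the appropriate level, the endpoint shown equals the highest concentration tested. Otherwise, values were interpolated linearly from a five-concentration, 48-hour dose response in 96-well plates. GI50 = concentration required for 50% inhibition of growth.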 Calls of active or inactive are those of the source. No stated cut-off is given here; in the data, active = GI50 up to about 1.1 µM and inactive = higher.
Assays:
Assay in all cases: NCI anticancer screen, dose series, 48 h
786-0 = tested on: 786-0
A498 = tested on: A498
A549 = tested on: A549
ACHN = tested on: ACHN
CAKI-1 = tested on: CAKI-1
CCRF-CEM = tested on: CCRF-CEM
COLO 205 = tested on: COLO 205
DLD-1 = tested on: DLD-1
DMS-114 = tested on: DMS-114
DMS-273 = tested on: DMS-273
EKVX = tested on: EKVX
HCC 2998 = tested on: HCC 2998
HCT-116 = tested on: HCT-116
HCT-15 = tested on: HCT-15
HL-60 = tested on: HL-60
HOP-18 = tested on: HOP-18
HOP-92 = tested on: HOP-92
HT-29 = tested on: HT-29
IGROV-1 = tested on: IGROV-1
K562 = tested on: K562
KM-20L2 = tested on: KM-20L2
KM12 = tested on: KM12
LOX IMVI = tested on: LOX IMVI
LXFL 529 = tested on: LXFL 529
M14 = tested on: M14
M19-MEL = tested on: M19-MEL
MOLT-4 = tested on: MOLT-4
Malme-3M = tested on: Malme-3M
NCI-H226 = tested on: NCI-H226
NCI-H23 = tested on: NCI-H23
NCI-H522 = tested on: NCI-H522
OVCAR-3 = tested on: OVCAR-3
OVCAR-4 = tested on: OVCAR-4
OVCAR-5 = tested on: OVCAR-5
OVCAR-8 = tested on: OVCAR-8
RPMI-8226 = tested on: RPMI-8226
RXF 393 = tested on: RXF 393
RXF 631 = tested on: RXF 631
SF-268 = tested on: SF-268
SF-295 = tested on: SF-295
SF-539 = tested on: SF-539
SK-MEL-28 = tested on: SK-MEL-28
SK-MEL-2 = tested on: SK-MEL-2
SK-MEL-5 = tested on: SK-MEL-5
SK-OV-3 = tested on: SK-OV-3
SN12C = tested on: SN12C
SNB-19 = tested on: SNB-19
SNB-75 = tested on: SNB-75
SNB-78 = tested on: SNB-78
SW-620 = tested on: SW-620
TK-10 = tested on: TK-10
U-251 = tested on: U-251
UACC-257 = tested on: UACC-257
UACC-62 = tested on: UACC-62
UO-31 = tested on: UO-31
HOP-62 = tested on: HOP-62
NCI-H460 = tested on: NCI-H460
SR = tested on: SR
XF498 = tested on: XF498

CC12OC3(C)OC(=O)C(c4ccccc4)(O1)C3(C)O2 (centres undefined)
GI50 (786-0): > 100 µM (inactive)
GI50 (A498): > 100 µM (inactive)
GI50 (A549): > 100 µM (inactive)
GI50 (ACHN): > 100 µM (inactive)
GI50 (CAKI-1): > 100 µM (inactive)
GI50 (CCRF-CEM): > 100 µM (inactive)
GI50 (COLO 205): > 100 µM (inactive)
GI50 (DLD-1): > 100 µM (inactive)
GI50 (DMS-114): > 100 µM (inactive)
GI50 (DMS-273): > 100 µM (inactive)
GI50 (EKVX): > 100 µM (inactive)
GI50 (HCC 2998): > 100 µM (inactive)
GI50 (HCT-116): > 100 µM (inactive)
GI50 (HCT-15): > 100 µM
GI50 (HL-60): > 100 µM (inactive)
GI50 (HOP-18): > 100 µM (inactive)
GI50 (HOP-92): > 100 µM (inactive)
GI50 (HT-29): > 100 µM (inactive)
GI50 (IGROV-1): > 100 µM (inactive)
GI50 (K562): > 100 µM (inactive)
GI50 (KM-20L2): > 100 µM (inactive)
GI50 (KM12): > 100 µM (inactive)
GI50 (LOX IMVI): > 100 µM (inactive)
GI50 (LXFL 529): > 100 µM (inactive)
GI50 (M14): > 100 µM (inactive)
GI50 (M19-MEL): > 100 µM (inactive)
GI50 (MOLT-4): > 100 µM (inactive)
GI50 (Malme-3M): > 100 µM (inactive)
GI50 (NCI-H226): > 100 µM (inactive)
GI50 (NCI-H23): > 100 µM (inactive)
GI50 (NCI-H522): > 100 µM (inactive)
GI50 (OVCAR-3): > 100 µM (inactive)
GI50 (OVCAR-4): > 100 µM (inactive)
GI50 (OVCAR-5): > 100 µM (inactive)
GI50 (OVCAR-8): > 100 µM (inactive)
GI50 (RPMI-8226): > 100 µM (inactive)
GI50 (RXF 393): > 100 µM (inactive)
GI50 (RXF 631): > 100 µM (inactive)
GI50 (SF-268): > 100 µM (inactive)
GI50 (SF-295): > 100 µM (inactive)
GI50 (SF-539): > 100 µM (inactive)
GI50 (SK-MEL-28): > 100 µM (inactive)
GI50 (SK-MEL-2): > 100 µM (inactive)
GI50 (SK-MEL-5): > 100 µM (inactive)
GI50 (SK-OV-3): > 100 µM (inactive)
GI50 (SN12C): > 100 µM (inactive)
GI50 (SNB-19): > 100 µM (inactive)
GI50 (SNB-75): > 100 µM (inactive)
GI50 (SNB-78): > 100 µM (inactive)
GI50 (SW-620): > 100 µM (inactive)
GI50 (TK-10): > 100 µM (inactive)
GI50 (U-251): > 100 µM (inactive)
GI50 (UACC-257): > 100 µM (inactive)
GI50 (UACC-62): > 100 µM (inactive)
GI50 (UO-31): > 100 µM (inactive)

CO[C@H](c1ccccc1)[C@H](C)N(C)c1ccc2ccccc2c1C1=NC(C)(C)CO1
GI50 (786-0): 16.2 µM (inactive)
GI50 (A549): 15.9 µM (inactive)
GI50 (ACHN): 16 µM (inactive)
GI50 (CAKI-1): > 10 µM (inactive)
GI50 (CCRF-CEM): 15.4 µM (inactive)
GI50 (COLO 205): 13.8 µM (inactive)
GI50 (DLD-1): 13 µM (inactive)
GI50 (DMS-114): 12.1 µM (inactive)
GI50 (DMS-273): 19.2 µM (inactive)
GI50 (EKVX): 20.1 µM (inactive)
GI50 (HCT-116): 10.8 µM (inactive)
GI50 (HCT-15): 14.6 µM
GI50 (HL-60): 21.3 µM (inactive)
GI50 (HOP-18): 17.1 µM (inactive)
GI50 (HOP-62): 21 µM (inactive)
GI50 (HOP-92): 15.7 µM (inactive)
GI50 (HT-29): 10.7 µM (inactive)
GI50 (IGROV-1): 33.1 µM (inactive)
GI50 (K562): 11.7 µM (inactive)
GI50 (KM-20L2): 13.4 µM (inactive)
GI50 (KM12): 17.1 µM (inactive)
GI50 (LXFL 529): 14.9 µM (inactive)
GI50 (M14): 16.5 µM (inactive)
GI50 (M19-MEL): 15.3 µM (inactive)
GI50 (MOLT-4): 9.02 µM (inactive)
GI50 (Malme-3M): 16.3 µM (inactive)
GI50 (NCI-H226): 16.2 µM (inactive)
GI50 (NCI-H23): 14.8 µM (inactive)
GI50 (NCI-H460): 16 µM (inactive)
GI50 (NCI-H522): 4.21 µM (inactive)
GI50 (OVCAR-3): 15.9 µM (inactive)
GI50 (OVCAR-4): > 10 µM (inactive)
GI50 (OVCAR-8): 13.8 µM (inactive)
GI50 (RPMI-8226): 15.6 µM (inactive)
GI50 (RXF 393): 13.8 µM (inactive)
GI50 (RXF 631): 15 µM (inactive)
GI50 (SF-268): 18.4 µM (inactive)
GI50 (SF-295): 15.5 µM (inactive)
GI50 (SF-539): 16.2 µM (inactive)
GI50 (SK-MEL-28): 18.3 µM (inactive)
GI50 (SK-MEL-2): 14.3 µM (inactive)
GI50 (SK-MEL-5): 88.3 µM (inactive)
GI50 (SK-OV-3): 19.2 µM (inactive)
GI50 (SN12C): 18 µM (inactive)
GI50 (SNB-19): 24.8 µM (inactive)
GI50 (SNB-75): 15.5 µM (inactive)
GI50 (SR): 13.3 µM (inactive)
GI50 (SW-620): 15.9 µM (inactive)
GI50 (TK-10): 22.9 µM (inactive)
GI50 (U-251): 16 µM (inactive)
GI50 (UACC-257): 15.7 µM (inactive)
GI50 (UACC-62): 33.1 µM (inactive)
GI50 (UO-31): 13.7 µM (inactive)
GI50 (XF498): 17.1 µM (inactive)
